Experimental data from patent US12403128B2, “Compositions and methods for blocking sodium channels” (University of Virginia Patent Foundation, priority 2017, dated 2025).
Structures can show the parent of a compound that is named as a salt.

Target: Nav1.6 (Homo sapiens, UniProt Q9UQD0)
Assay: % block of Nav1.6 at 100 μM and IC50 (NaV1.6)
Format: cell-based
Conditions: for inhibition at 100 µM: 100 μM compound; for IC50: NaV1.6, Table 2, MV1060-MV1091, unit inferred, read-out: IC50
Method: Evaluation of Compounds for % Block of Nav1.6 at 100 μM
Compounds of the present invention were tested in an assay for % block of Nav1.6 at a concentration of 100 μM compound. Table 1 also indicates the melting point ranges for some compounds.
Some such compounds correspond to a compound of Formula III, wherein R9 is substituted with a halogen, a nitro or a CF3 group. In comparing MV1089, MV1090 and MV1091, it is shown that compounds of Formula III where R3 is H result in higher % block than when R3 is substituted. e.g., by OCH3. In comparing MV1066, MV1084, MV1085, MV1086, MV1087 and MV1088, it is shown that compounds of Formula III where R9 is halogen, a nitro or a CF3 group result in higher % block than when R9 is OCH3, COOH or CH3.

Nav1.6, sequence (Q9UQD0 whole entry): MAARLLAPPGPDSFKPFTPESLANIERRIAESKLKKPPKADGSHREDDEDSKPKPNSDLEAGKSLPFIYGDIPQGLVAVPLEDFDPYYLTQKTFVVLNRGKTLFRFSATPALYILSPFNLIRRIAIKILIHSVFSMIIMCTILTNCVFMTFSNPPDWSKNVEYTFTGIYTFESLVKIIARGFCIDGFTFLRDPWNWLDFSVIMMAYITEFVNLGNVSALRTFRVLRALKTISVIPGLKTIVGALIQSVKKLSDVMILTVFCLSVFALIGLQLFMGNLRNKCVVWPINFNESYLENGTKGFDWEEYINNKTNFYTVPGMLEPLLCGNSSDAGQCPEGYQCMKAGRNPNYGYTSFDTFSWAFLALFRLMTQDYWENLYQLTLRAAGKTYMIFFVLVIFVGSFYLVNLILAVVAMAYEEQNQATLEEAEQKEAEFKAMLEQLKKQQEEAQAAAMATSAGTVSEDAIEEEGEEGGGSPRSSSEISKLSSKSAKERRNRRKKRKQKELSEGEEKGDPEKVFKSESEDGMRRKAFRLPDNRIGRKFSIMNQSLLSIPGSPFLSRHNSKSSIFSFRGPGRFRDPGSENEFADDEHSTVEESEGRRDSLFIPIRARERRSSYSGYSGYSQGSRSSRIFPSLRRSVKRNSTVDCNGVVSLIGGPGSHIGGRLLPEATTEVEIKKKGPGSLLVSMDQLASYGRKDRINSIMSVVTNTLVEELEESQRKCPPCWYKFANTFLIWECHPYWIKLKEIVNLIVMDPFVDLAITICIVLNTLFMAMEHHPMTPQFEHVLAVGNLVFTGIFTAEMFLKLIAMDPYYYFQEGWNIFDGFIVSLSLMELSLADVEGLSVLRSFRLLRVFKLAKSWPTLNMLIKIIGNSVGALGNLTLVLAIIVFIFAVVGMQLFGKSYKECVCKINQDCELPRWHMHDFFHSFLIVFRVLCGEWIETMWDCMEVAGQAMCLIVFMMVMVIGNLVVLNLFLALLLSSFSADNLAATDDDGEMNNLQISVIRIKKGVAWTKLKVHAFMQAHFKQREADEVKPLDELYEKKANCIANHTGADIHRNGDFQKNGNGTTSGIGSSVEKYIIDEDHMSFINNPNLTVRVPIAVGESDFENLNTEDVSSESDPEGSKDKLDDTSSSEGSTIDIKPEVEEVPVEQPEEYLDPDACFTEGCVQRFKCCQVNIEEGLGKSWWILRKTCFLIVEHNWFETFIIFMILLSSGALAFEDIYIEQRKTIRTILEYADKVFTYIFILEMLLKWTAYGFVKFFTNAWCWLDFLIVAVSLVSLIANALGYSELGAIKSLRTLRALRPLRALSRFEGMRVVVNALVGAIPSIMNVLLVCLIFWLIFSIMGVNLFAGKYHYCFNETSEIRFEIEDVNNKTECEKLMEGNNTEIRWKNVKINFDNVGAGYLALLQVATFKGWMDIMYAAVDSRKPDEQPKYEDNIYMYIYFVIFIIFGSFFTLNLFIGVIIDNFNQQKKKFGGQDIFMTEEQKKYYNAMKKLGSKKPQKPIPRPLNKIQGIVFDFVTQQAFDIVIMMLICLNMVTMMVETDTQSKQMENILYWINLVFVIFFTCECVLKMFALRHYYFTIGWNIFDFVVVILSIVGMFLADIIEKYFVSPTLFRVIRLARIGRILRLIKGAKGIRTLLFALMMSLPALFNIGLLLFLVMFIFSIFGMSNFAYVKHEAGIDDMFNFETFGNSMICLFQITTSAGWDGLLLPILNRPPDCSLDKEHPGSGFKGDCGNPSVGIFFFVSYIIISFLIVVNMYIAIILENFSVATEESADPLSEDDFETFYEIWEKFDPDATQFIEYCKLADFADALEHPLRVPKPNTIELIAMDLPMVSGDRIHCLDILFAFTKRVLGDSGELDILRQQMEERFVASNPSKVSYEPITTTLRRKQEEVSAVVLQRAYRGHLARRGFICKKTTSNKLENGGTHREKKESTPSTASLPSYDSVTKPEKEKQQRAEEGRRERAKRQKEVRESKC

Compound | inhibition at 100 µM [%] | IC50 [µM]
Cc1ccccc1-c1nc2ccccc2[nH]1 [MV1081, 2-(2-methylphenyl)-1H-1,3-benzodiazole] | 25 | > 100
CCCc1nc(-c2ccc(Cl)cc2)[nH]c1C [MV1371, 2-(4-CHLORO-PHENYL)-5-METHYL-4-PROPYL-1H-IMIDAZOLE OXALATE] | 100 | 
O=[N+]([O-])c1cccc(-c2nc3ccccc3[nH]2)c1 [MV1071, 2-(3-nitrophenyl)-1H-1,3-benzodiazole] | 30 | > 100
Cc1cccc(-c2nc3ccccc3[nH]2)c1 [MV1082, 2-(3-methylphenyl)-1H-1,3-benzodiazole] | 65 | 
COc1ccc(-c2nc(C)c(C)[nH]2)cc1 [MV1362, 2-(4-METHOXY-PHENYL)-4,5-DIMETHYL-1H-IMIDAZOLE OXALATE] | 85 | 
CCCc1nc(-c2cccc(OC)c2)[nH]c1C [MV1369, 2-(3-METHOXY-PHENYL)-5-METHYL-4-PROPYL-1H-IMIDAZOLE OXALATE] | 100 | 
COc1ccccc1-c1nc2ccccc2[nH]1 [MV1073, 2-(2-methoxyphenyl)-1H-1,3-benzodiazole] | 40 | > 100
Clc1ccccc1-c1ncc[nH]1 [MV1355, 2-(2-CHLORO-PHENYL)-1H-IMIDAZOLE OXALATE] | 0 | 
Cc1nc(-c2ccc(Cl)cc2)[nH]c1C [MV1365, 2-(4-CHLORO-PHENYL)-4,5-DIMETHYL-1H-IMIDAZOLE OXALATE] | 85 | 
Cc1nc(-c2cccc(Cl)c2)[nH]c1C [MV1366, 2-(3-CHLORO-PHENYL)-4,5-DIMETHYL-1H-IMIDAZOLE OXALATE] | 95 | 
COc1ccccc1-c1nc2cc(Cl)ccc2[nH]1 [MV1089, 6-chloro-2-(2-methoxyphenyl]-1H-1,3-benzodiazole] | 90 | 40.1
COc1ccc(C(=O)Nc2cccc(-c3c[nH]c(-c4ccccc4)n3)c2)cc1 [MV1309, 4-METHOXY-N-[3-[2-PHENYL-1H-IMIDAZOL-4-YL]-PHENYL]-BENZAMIDE HYDROCHLORIDE] | 75 | 
CCCc1nc(-c2ccccc2OC)[nH]c1C [MV1370, 2-(2-METHOXY-PHENYL)-5-METHYL-4-PROPYL-1H-IMIDAZOLE OXALATE] | 90 | 
COc1ccc(-c2nc3cc(Cl)ccc3[nH]2)cc1 [MV1091, 6-chloro-2-(4-methoxyphenyl)-1H-1,3-benzodiazole] | 0 | > 100
O=C(O)c1ccc(-c2nc3ccccc3[nH]2)cc1 [MV1080, 4-(1H-1,3-benzodiazol-2-yl)benzoic acid] | 10 | > 100
COc1ccc2nc(-c3ccccc3)[nH]c2c1 [MV1085, 6-methoxy-2-phenyl-1H-1,3-benzodiazole] | 35 | > 100
COc1cccc(-c2nc3ccccc3[nH]2)c1 [MV1074, 2-(3-methoxyphenyl)-1H-1,3-benzodiazole] | 40 | > 100
COc1ccccc1-c1ncc(C)[nH]1 [MV1358, 2-(2-METHOXY-PHENYL)-5-METHYL-1H-IMIDAZOLE OXALATE] | 50 | 
COc1ccc(-c2ncc[nH]2)cc1 [MV1350, 2-(4-METHOXY-PHENYL)-1H-IMIDAZOLE OXALATE] | 25 | 
CCCc1nc(-c2ccc(OC)cc2)[nH]c1C [MV1368, 2-(4-METHOXY-PHENYL)-5-METHYL-4-PROPYL-1H-IMIDAZOLE OXALATE] | 85 | 
COc1cccc(-c2nc3cc(Cl)ccc3[nH]2)c1 [MV1090, 6-chloro-2-(3-methoxyphenyl)-1H-1,3-benzodiazole] | 85 | 29.6
COc1cccc(-c2ncc(C)[nH]2)c1 [MV1357, 2-(3-METHOXY PHENYL)-5-METHYL-1H-IMIDAZOLE OXALATE] | 90 | 
COc1ccc(-c2ncc(C)[nH]2)cc1 [MV1356, 2-(4-METHOXY-PHENYL)-5-METHYL-1H-IMIDAZOLE OXALATE] | 65 | 
COc1ccc(C(=O)Nc2cccc(-c3c[nH]c(-c4ccc(OC)cc4)n3)c2)cc1 [MV1310, 4-METHOXY-N-(3-[2-(4-METHOXY-PHENYL)-1H-IMIDAZOL-A-YL]-PHENYL)-BENZAMIDE HYDROCHLORIDE] | 60 | 
Cc1cnc(-c2cccc(Cl)c2)[nH]1 [MV1360, 2-(3-CHLORO-PHENYL)-5-METHYL-1H-IMIDAZOLE OXALATE] | 70 | 
Clc1cccc(-c2ncc[nH]2)c1 [MV1354, 2-(3-CHLORO-PHENYL)-1H-IMIDAZOLE OXALATE] | 20 | 

Compound | inhibition at 100 µM [%] | IC50 [µM]
O=C(Nc1ccc(-c2c[nH]c(-c3ccccc3)n2)cc1)c1ccccc1 [MV1301, N-(4-[2-PHENYL-1H-IMIDAZOL-4-YL)-PHENYL]-BENZAMIDE HYDROCHLORIDE] | 0 | 
O=[N+]([O-])c1ccc(-c2nc3ccccc3[nH]2)cc1 [MV1072, 2-(4-nitrophenyl)-1H-1,3-benzodiazole] | 20 | > 100
O=[N+]([O-])c1ccc2nc(-c3ccccc3)[nH]c2c1 [MV1084, 6-nitro-2-phenyl-1H-1,3-benzodiazole] | 70 | 
O=C(O)c1cccc(-c2nc3ccccc3[nH]2)c1 [MV1079, 3-(1H-1,3-benzodiazol-2-yl)benzoic acid] | 15 | > 100
Clc1ccc(-c2nc3ccccc3[nH]2)cc1 [MV1061, 2-(4-chlorophenyl)-1H-1,3-benzodiazole] | 45 | 
Clc1ccccc1-c1nc2ccccc2[nH]1 [MV1068, 2-(2-chlorophenyl)-1H-1,3-benzodiazole] | 75 | 41.6
CCCc1nc(-c2cccc(Cl)c2)[nH]c1C [MV1372, 2-(3-CHLORO-PHENYL)-5-METHYL-4-PROPYL-1H-IMIDAZOLE OXALATE] | 100 | 
Clc1ccc(-c2ncc[nH]2)cc1 [MV1353, 2-(4-CHLORO-PHENYL)-1H-IMIDAZOLE OXALATE] | 30 | 
COc1ccc(-c2nc(-c3ccc(NC(=O)c4ccc(Cl)cc4)cc3)c[nH]2)cc1 [MV1306, 4-CHLORO-N-(4-[2-(4-METHOXY-PHENYL)-1H-IMIDAZOL-4-YL]-PHENYL)-BENZAMIDE HYDROCHLORIDE] | 10 | 
FC(F)(F)c1ccc2nc(-c3ccccc3)[nH]c2c1 [MV1086, 6-trifluoromethyl-2-phenyl-1H-1,3-benzodiazole] | 90 | 24.7
Cc1cnc(-c2ccccc2Cl)[nH]1 [MV1361, 2-(2-CHLORO-PHENYL)-5-METHYL-1H-IMIDAZOLE OXALATE] | 0 | 
O=C(Nc1ccc(-c2c[nH]c(-c3ccccc3)n2)cc1)c1ccc(Cl)cc1 [MV1305, 4-CHLORO-N-[4-(2-PHENYL-1H-IMIDAZOL-4-YL)-PHENYL]-BENZAMIDE HYDROCHLORIDE] | 50 | 
COc1ccc(-c2nc(-c3cccc(NC(=O)c4ccccc4)c3)c[nH]2)cc1 [MV1308, N-(3-[2-(4-METHOXY-PHENYL)-1H-IMIDAZOL-4-YL]-PHENYL)-BENZAMIDE HYDROCHLORIDE] | 75 | 
Cc1ccc(-c2nc3ccccc3[nH]2)cc1 [MV1083, 2-(4-methylphenyl)-1H-1,3-benzodiazole] | 30 | > 100
COc1ccccc1-c1nc(C)c(C)[nH]1 [MV1364, 2-(2-METHOXY-PHENYL)-4,5-DIMETHYL-1H-IMIDAZOLE OXALATE] | 70 | 
FC(F)(F)c1ccccc1-c1nc2ccccc2[nH]1 [MV1075, 2-(2-trifluoromethyl-phenyl)-1H-1,3-benzodiazole] | 20 | > 100
COc1ccc(C(=O)Nc2ccc(-c3c[nH]c(-c4ccccc4)n3)cc2)cc1 [MV1303, 4-METHOXY-N-[4-[2-PHENYL-1H-IMIDAZOL-4-YL]-PHENYL]-BENZAMIDE HYDROCHLORIDE] | 0 | 
O=C(Nc1cccc(-c2c[nH]c(-c3ccccc3)n2)c1)c1ccc(Cl)cc1 [MV1311, 4-CHLORO-N-[3-(2-PHENYL-1H-IMIDAZOL-4-YL)-PHENYL]-BENZAMIDE HYDROCHLORIDE] | 90 | 
COc1ccc(-c2nc(-c3ccc(NC(=O)c4ccccc4)cc3)c[nH]2)cc1 [MV1302, N-(4-[2-(4-METHOXY-PHENYL-1H-IMIDAZOL-4-YL]-PHENYL)-BENZAMIDE HYDROCHLORIDE] | 20 | 
c1ccc(-c2nc3ccccc3[nH]2)cc1 [MV1060, 2-Phenyl-benzimidazole] | 30 | > 100
Cc1nc(-c2ccccc2Cl)[nH]c1C [MV1367, 2-(2-CHLORO-PHENYL)-4,5-DIMETHYL-1H-IMIDAZOLE OXALATE] | 45 | 
COc1ccccc1-c1ncc[nH]1 [MV1352, 2-(2-METHOXY-PHENYL)-1H-IMIDAZOLE OXALATE] | 30 | 
FC(F)(F)c1ccc(-c2nc3ccccc3[nH]2)cc1 [MV1077, 2-(4-trifluoromethyl-phenyl)-1H-1,3-benzodiazole] | 15 | > 100
O=C(Nc1cccc(-c2c[nH]c(-c3ccccc3)n2)c1)c1ccccc1 [MV1307, N-[3-(2-PHENYL-1H-IMIDAZOL-4-YL)-PHENYL]-BENZAMIDE HYDROCHLORIDE] | 25 | 
O=C(O)c1ccc2nc(-c3ccccc3)[nH]c2c1 [MV1087, 2-phenyl-1H-1,3-benzodiazole-6-carboxylic acid] | 0 | > 100
Clc1cccc(-c2nc3ccccc3[nH]2)c1 [MV1069, 2-(3-chlorophenyl)-1H-1,3-benzodiazole] | 65 | 37
